Experimental data taken from publication PMC9740789, “Investigation of In Vitro and In Vivo Metabolism of α-Amanitin in Rats Using Liquid Chromatography-Quadrupole Time-of-Flight Mass Spectrometric Method” (Molecules, 2022).
Like-named read-outs stand apart in the source and are kept apart here.

Key:
[1] = In vitro metabolic stability in human liver microsomes; format: in vitro ADME
Experimental: In vitro stability of α-amanitin at liver microsomal system was evaluated by a LC-qTOF-MS. The remaining % represents the percentage of the sample (α-amanitin) peak area to the internal standard (verapamil) peak area.
The in vitro half-life (T1/2) and the in vitro intrinsic clearance (CLint, in vitro) were calculated by using the slope (k) of the graph shown in Figure 3. The calculation formula is shown in Equations (1) and (2). (1) T1/2=ln2/k (2) CLint,in vitromL/min/mg=k×microsomal volume mL/microsomal protein mg
The concentration of liver microsomes (microsomal volume/microsomal protein) used in the experiment was 0.5 mL/mg. The obtained CLint, in vitro was used to calculate in vivo intrinsic clearance (CLint, in vivo). The equations for calculating CLint, in vivo is shown at Equation (3):(3) CLint,in vivomL/min/kg=CLint,in vitro×mg microsomal protein/g liver weight×(g liver weight/kg body weight)
The ratio of mg microsomal protein to g liver weight was 44.8 and 48.8 in rat and human, respectively. And the ratio of g liver weight/kg body weight was 40 and 25.7 in rat and human, respectively. The hepatic clearance (CLh) was calculated from CLint, in vivo in a well-stirred model using the following Equation (4):(4) CLhmL/min=(Qh×CLint,in vivo/Qh+CLint,in vivo)
Qh (mL/min/kg), the hepatic blood flow, is known to be 55.2 and 20.7 mL/min/kg in rat and human, respectively. As a result, α-amanitin has a low hepatic clearance according to the aforementioned well-stirred model.
A metabolic stability test of α-amanitin was performed in rat and human liver microsomes. Cofactors (NADPH regenerating system solution A and B), compound (100 μg/mL of α-amanitin), 0.5 M potassium phosphate buffer with pH 7.4, and DW were mixed and pre-incubated for 5 min at 37 °C. After the pre-incubation, 12 μL of rat or human liver microsome (20 mg/mL each) was added to a 468 μL of pre-incubated cofactor mixture and the mixture was incubated for 0, 15, 30, and 60 min. After the incubation for each time point, 100 μL of the mixture was aliquoted to a 1.5 mL E-tube at each time point and 100 μL of 50% ACN in MeOH which containing 250 ng/mL of verapamil as an internal standard for protein precipitation was added for stopping the reaction. Then the mixture was centrifuged at 10,000 rpm for 5 min. Then 180 μL of the supernatants was collected in a fresh E-tube and evaporated for 3 h. After evaporation, samples were reconstituted with 150 μL of 50% MeOH with 5 mM ammonium formate. After centrifugation at 10,000 rpm for 5 min, 140 μL of reconstituted sample was transferred to a LC-vial.

[2] = Semi-mass balance study in rats; format: in vivo, rat; conditions: for dose excreted: Sprague-Dawley, rat
Experimental: The excretion characteristic of α-amanitin after IV and PO administration is shown in Table 7, and the time to recovery of α-amanitin profile is shown in Figure 5. The recovery represents the percentage of the excreted amount (mg) to the administrated amount (mg).
A semi-mass balance study was performed to explore the major elimination route of α-amanitin in rats. A non-radiolabeled α-amanitin was used for the semi-mass balance study which seems acceptable due to low metabolic turn-over of α-amanitin.
For the semi-mass balance study, the housed rats were prepared with a bile duct cannulation and administrated by IV bolus in a lateral tail vein or by PO at 1 mg/kg for each dosing route. Urine and feces were collected using a metabolic cage (Jeungdo Bio & Plant co., Seoul, Republic of Korea), and bile was collected through a bile duct cannula. The sampling time interval were 0–4, 4–8, 8–24, and 24–48 h after administration. The urine, bile, and feces samples were stored at –20 °C until further analysis.

[3] = In vitro MetID in CLM and HLM; format: in vitro ADME, cynomolgus monkey, human; conditions: in vitro MetID with GSH in liver microsomes of 5 species
Experimental: Therefore, in vitro and in vivo MetID were conducted to explore any possible different metabolites between the two systems. The in vitro and in vivo MetID samples were analyzed by a LC-qTOF-MS, and the data were used to elucidate a metabolite of α-amanitin using PeakView® and MetabolitePilot™. The structure of the metabolite of α-amanitin was predicted by MetabolitePilot™. The fragmentation pattern of the predicted metabolite ion from product ion scan was compared to the fragmentation pattern of the parent ion using PeakView®.
In vitro MetID was conducted in 5 species (mouse, rat, cynomolgus monkey, dog, and human) of liver microsomes. Cofactors (NADPH solution A and B, 5 mM UDPGA, and 0.5 mM GSH), compound (2 mg/mL of α-amanitin), and DW were mixed and pre-incubated for 5 min at 37 °C. After the pre-incubation, 20 μL of liver microsome (20 mg/mL) was added to 380 μL of cofactor mixture and incubated for 0 and 120 min at 37 °C. After the incubation for each time point, 150 μL of the mixture was transferred to 450 μL of 50% ACN in MeOH for stopping the reaction. Then the mixture was centrifuged at 10,000 rpm for 5 min. Then 550 μL of the supernatant was collected in a fresh E-tube and evaporated for 4 h. After evaporation, samples were reconstituted with 60 μL of 50% MeOH with 5 mM ammonium formate. […]

CC[C@H](C)[C@@H]1NC(=O)CNC(=O)[C@@H]2Cc3c([nH]c4cc(O)ccc34)[S@+]([O-])C[C@H](NC(=O)CNC1=O)C(=O)N[C@@H](CC(N)=O)C(=O)N1C[C@H](O)C[C@H]1C(=O)N[C@@H]([C@@H](C)[C@@H](O)CO)C(=O)N2 [α-amanitin]
remaining at 0.25 h ([1]; human liver microsomes, 15 min incubation, NADPH regenerating system, potassium phosphate buffer pH 7.4, 37 °C, 5 min pre-incubation, LC-qTOF-MS): 89.2 ± 5.72% | remaining at 0.5 h ([1]; human liver microsomes, 30 min incubation, NADPH regenerating system, potassium phosphate buffer pH 7.4, 37 °C, 5 min pre-incubation, LC-qTOF-MS): 85.1 ± 5.52% | remaining at 1 h ([1]; human liver microsomes, 60 min incubation, NADPH regenerating system, potassium phosphate buffer pH 7.4, 37 °C, 5 min pre-incubation, LC-qTOF-MS): 82.6 ± 3.96% | half-life ([1]; human liver microsomes, in vitro half-life, ln2/k from slope of ln(Remaining %) vs incubation time 0-60 min, NADPH, pH 7.4, 37 °C): 3.93 h | CLint, In Vitro ([1]; human liver microsomes, k × microsomal volume/microsomal protein (0.5 mL/mg as printed)): <10 µL/min/mg | CLh ([1]; human, predicted hepatic clearance, well-stirred model, Qh 20.7 mL/min/kg): 5.43 mL/min/kg | CLint, In Vivo ([1]; human, scaled from CLint, in vitro with 48.8 mg microsomal protein/g liver and 25.7 g liver/kg body weight): 7.36 mL/min/kg | dose excreted ([2]; feces, bile duct cannulated rats, IV bolus 1 mg/kg, collection 0–48 h, excreted amount/administered amount, unchanged α-amanitin, LC-qTOF-MS, read-out: Recovery in feces): < 0.01% | dose excreted ([2]; feces, bile duct cannulated rats, PO 1 mg/kg, collection 0–48 h, excreted amount/administered amount, unchanged α-amanitin, LC-qTOF-MS, read-out: Recovery in feces): 22% | dose excreted ([2]; urine, bile duct cannulated rats, IV bolus 1 mg/kg, collection 0–48 h, excreted amount/administered amount, unchanged α-amanitin, LC-qTOF-MS, read-out: Recovery in urine): 67.9% | dose excreted ([2]; urine, bile duct cannulated rats, PO 1 mg/kg, collection 0–48 h, excreted amount/administered amount, unchanged α-amanitin, LC-qTOF-MS, read-out: Recovery in urine): 1.45% | dose excreted ([2]; bile duct cannulated rats, IV bolus 1 mg/kg, collection 0–48 h, excreted amount/administered amount, unchanged α-amanitin, LC-qTOF-MS, read-out: Recovery in bile): 1% | dose excreted ([2]; bile duct cannulated rats, PO 1 mg/kg, collection 0–48 h, excreted amount/administered amount, unchanged α-amanitin, LC-qTOF-MS, read-out: Recovery in bile): 0.05% | dose excreted ([2]; rats, IV 1 mg/kg, urine + bile + feces, 0–48 h, read-out: Total recovery): 68.9% | dose excreted ([2]; rats, PO 1 mg/kg, urine + bile + feces, 0–48 h, read-out: Total recovery): 23.5% | Time within which most of the administered α-amanitin was excreted in urine ([2]; rats, IV 1 mg/kg): ≤ 8 h | Reactive metabolites (GSH adducts) [3]: no reactive metabolites with GSH adducts were detected
